Source: patent publication US20240425464A1, “Substituted Monohydrazides as Potent Antifungal Agents” (University of Kentucky Research Foundation, priority 2023, published 2024)
Values after ≈ are worked out from the molar mass of the structure shown. Where two headings read alike, the source gives them in different places.

Tests used:
[1] = test system: Candida auris strain AR Bank #384 (K); test: MIC determination by in vitro antifungal assay; format: cell-based
Method: (§1) The antifungal agent amphotericin B (AmB) was purchased from VWR (Radnor PA, USA). AmB was dissolved in DMSO at a final concentration of 5 mg/mL and was stored at −20° C., protected from light. Candida albicans American Type Culture Collection (ATCC) 10231 (strain A), C. albicans ATCC 64124 (B), and C. albicans ATCC MYA-2876 (C) were obtained from Utah State University. C. albicans ATCC 90819 (D), C. albicans ATCC MYA-2310 (E), C. albicans ATCC MYA-1237 (F), C. albicans ATCC MYA-1003 (G), Candida glabrata ATCC 2001 (H), Candida krusei ATCC 6258 (I), Candida parapsilosis ATCC 22019 (J), Cryptococcus neoformans ATCC MYA-895 (M), Aspergillus terreus ATCC MYA-3633 (N), and Aspergillus flavus ATCC MYA-3631 (0) were obtained from the American Type Culture Collection (ATCC; Manassas, VA, USA). Aspergillus nidulans ATCC 38163 (P) was obtained from University of Kentucky. Clinically derived Aspergillus fumigatus NRRL 163 (Q), A. fumigatus NRRL 5109 (R), and A. fumigatus NRRL 6113 (S) were obtained from Northern Regional Research Laboratory (NRRL). Candida auris 384 (K), C. auris 390 (L), and fungal strains 381-400 (including 10 C. auris (AR Bank #381-390), 3 Candida duobushaemulonii (AR Bank #391, AR Bank #392, and AR Bank #394), 2 Candida haemulonii (AR Bank #393 and AR Bank #395), 1 Kodameae ohmeri (AR Bank #396), 1 C. krusei (AR Bank #397), 1 Candida lusitaniae (AR Bank #398), and 2 Saccharomyces cerevisiae strains (AR Bank #399 and AR Bank #400)) were part of a larger fungal library from the AR Bank maintained by the Centers for Disease Control and Prevention (CDC; Atlanta, GA, USA). Filamentous fungi and yeasts were cultivated at 35° C. in RPMI 1640 medium (with L-glutamine, without sodium bicarbonate, Sigma-Aldrich, St. Louis, MO) buffered to a pH of 7.0 with 0.165 M morpholinepropanesulfonic acid (MOPS) buffer (Sigma-Aldrich). For cytotoxicity assays, HepG2 and the mouse macrophage cell line J774A.1 were obtained from University of Kentucky. The human embryonic kidney cell line, HEK-293, was bought from the ATCC. Mammalian cells were grown in Dulbecco's Modified Eagle's Medium (DMEM) (from VWR) with 10% fetal bovine serum (FBS) (from VWR) and 1% Pen/Strep (from ATCC). Cell lines were cultured at 37° C. with 5% CO2 and passaged by trypsinization with 0.05% trypsin: 0.53 mM EDTA (from Sigma-Aldrich).
(§2) From the actively growing yeast culture, 100 µL were then transferred to 900 μL of RPMI 1640 medium and re-adjusted to achieve OD600 of 0.12 (˜1×10^6 CFU/mL). The cell suspension was further diluted to achieve 1:100 in RPMI 1640 medium.
(§3) Finally, the activity of these monohydrazides was explored against […] non-Candida strains: Cryptococcus neoformans ATCC MYA-895 (M), Aspergillus terreus ATCC MYA-3633 (N), Aspergillus flavus ATCC MYA-3631 (O), Aspergillus nidulans ATCC 38163 (P), Aspergillus fumigatus NRRL 163 (Q), A. fumigatus NRRL 5109 (R), and A. fumigatus NRRL 6113 (S) (Tables 1A and 1B). The double dilution method was used with concentrations ranging from 0.06 to 31.3 j·tg mL^−1 for monohydrazides 1a-9j, and the commercially available positive antifungal control amphotericin B (AmB).

[2] = test system: C. auris strain AR Bank #390 (L); test: MIC determination by in vitro antifungal assay; format: cell-based, Candida auris
Method: as §1, §2, §3

[3] = strain K = C. auris AR Bank # 0384 (Tables 1A/1B)
[4] = strain L = C. auris AR Bank # 0390 (Tables 1A/1B)
[5] = C. auris AR Bank # 384 (K) (Table 2B)
[6] = C. auris AR Bank # 390 (L) (Table 2B)
[7] = Candidozyma auris, C. auris AR Bank # 384 (K) (Table 2B), read-out: MIC
[8] = Candidozyma auris, strain K = C. auris AR Bank # 0384 (Tables 1A/1B), read-out: MIC
[9] = Candidozyma auris, C. auris AR Bank # 390 (L) (Table 2B), read-out: MIC
[10] = Candidozyma auris, strain L = C. auris AR Bank # 0390 (Tables 1A/1B), read-out: MIC

Row | SMILES | MIC [1, 3] [μg/mL^−1] | MIC [2, 4] [μg/mL^−1] | MIC [1, 5] [μg/mL^−1] | MIC [2, 6] [μg/mL^−1] | MIC [1, 7] [µg/mL] | MIC [1, 8] [µg/mL] | MIC [2, 9] [µg/mL] | MIC [2, 10] [µg/mL]
1 | O=C(NNc1cccc(F)c1)c1ccc(F)cn1 [Compound 3a] | 1.95 | 0.98 | – | – | – | – | – | –
2 | COc1cccc(NNC(=O)c2ccc(F)cn2)c1 [Compound 3c] | 1.95 | 0.98 | 0.49 | 3.9 | – | – | – | –
3 | O=C(NNc1ccc(F)cc1)c1ccc(F)cn1 [Compound 3d] | 3.9 | 0.98 | 0.98 | 3.9 | – | – | – | –
4 | O=C(NNc1ccc(Cl)cc1)c1ccc(F)cn1 [Compound 3e] | 7.8 | 7.8 | 7.8 | 7.8 | – | – | – | –
5 | COc1ccc(NNC(=O)c2ccc(F)cn2)cc1 [Compound 3f] | 3.9 | 0.49 | – | – | – | – | – | –
6 | O=C(NNc1ccc(F)cc1F)c1ccc(F)cn1 [Compound 3g] | – | – | – | – | 0.98 (≈ 3.67 µM) | 7.8 (≈ 29.2 µM) | 3.9 (≈ 14.6 µM) | 3.9 (≈ 14.6 µM)
7 | O=C(NNc1cccc(F)c1)c1ccc(Br)cn1 [Compound 4a] | 1.95 | 1.95 | – | – | – | – | – | –
8 | COc1cccc(NNC(=O)c2ccc(Br)cn2)c1 [Compound 4c] | – | – | – | – | – | 1.95 (≈ 6.05 µM) | – | 0.98 (≈ 3.04 µM)
9 | O=C(NNc1ccc(F)cc1)c1ccc(Br)cn1 [Compound 4d] | – | – | – | – | 1.95 (≈ 6.29 µM) | 7.8 (≈ 25.2 µM) | 7.8 (≈ 25.2 µM) | 3.9 (≈ 12.6 µM)
10 | COc1ccc(NNC(=O)c2ccc(Br)cn2)cc1 [Compound 4f] | – | – | – | – | – | 1.95 (≈ 6.05 µM) | – | 1.95 (≈ 6.05 µM)
11 | O=C(NNc1ccc(F)cc1F)c1ccc(Br)cn1 [Compound 4g] | – | – | – | – | – | 3.9 (≈ 11.9 µM) | – | 31.3 (≈ 95.4 µM)
12 | O=C(NNc1cccc(F)c1)c1cccc(F)n1 [Compound 5a] | 1.95 | 3.9 | – | – | – | – | – | –
13 | O=C(NNc1ccc(F)cc1)c1cccc(F)n1 [Compound 5d] | – | – | – | – | 0.49 (≈ 1.97 µM) | 1.95 (≈ 7.82 µM) | 1.95 (≈ 7.82 µM) | 0.98 (≈ 3.93 µM)
14 | O=C(NNc1ccc(Cl)cc1)c1cccc(F)n1 [Compound 5e] | 3.9 | 7.8 | 3.9 | 7.8 | – | – | – | –
15 | COc1ccc(NNC(=O)c2cccc(F)n2)cc1 [Compound 5f] | – | – | – | – | – | 1.95 (≈ 7.46 µM) | – | 1.95 (≈ 7.46 µM)
16 | O=C(NNc1ccc(F)cc1F)c1cccc(F)n1 [Compound 5g] | – | – | – | – | 3.9 (≈ 14.6 µM) | 7.8 (≈ 29.2 µM) | 3.9 (≈ 14.6 µM) | 3.9 (≈ 14.6 µM)
17 | O=C(NNc1cccc(F)c1)c1cccc(Br)n1 [Compound 6a] | 3.9 | 1.95 | – | – | – | – | – | –
18 | O=C(NNc1ccc(F)cc1)c1cccc(Br)n1 [Compound 6d] | – | – | – | – | 0.98 (≈ 3.16 µM) | 3.9 (≈ 12.6 µM) | 3.9 (≈ 12.6 µM) | 0.98 (≈ 3.16 µM)
19 | COc1ccc(NNC(=O)c2cccc(Br)n2)cc1 [Compound 6f] | – | – | – | – | – | 1.95 (≈ 6.05 µM) | – | 1.95 (≈ 6.05 µM)
20 | O=C(NNc1cccc(F)c1)c1ncc(F)cc1F [Compound 7a] | 1.95 | 1.95 | – | – | – | – | – | –
21 | COc1cccc(NNC(=O)c2ncc(F)cc2F)c1 [Compound 7c] | – | – | – | – | – | 7.8 (≈ 27.9 µM) | – | 15.6 (≈ 55.9 µM)
22 | O=C(NNc1ccc(F)cc1)c1ncc(F)cc1F [Compound 7d] | – | – | – | – | 0.49 (≈ 1.83 µM) | 1.95 (≈ 7.3 µM) | 3.9 (≈ 14.6 µM) | 0.98 (≈ 3.67 µM)
